Calls of active or inactive are those of the source. The calls are words filed in the database; no cut-off is given here.
Assays:
Assay type in all cases: nucleic-acid assay
Quadruplex DNA [1] = experiment: Binding affinity to human Tel12 G4 quadruplex DNA assessed as decrease in absorption maxima at 338 and 413 nm at 3 uM by spectrophotometric titration analysis
Quadruplex DNA [2] = experiment: Binding affinity to human Tel23 G4 quadruplex DNA assessed as quadruplex DNA stabilization by measuring increase in melting temperature at compound:quadruplex DNA ratio of 1:1 by thermal melting studies
Quadruplex DNA [3] = experiment: Binding affinity to human Tel12 G4 quadruplex DNA assessed as gibbs free energy change at 298.15 K by isothermal titration calorimetric analysis
Quadruplex DNA [4] = experiment: Binding affinity to human Tel12 G4 quadruplex DNA assessed as increase in fluorescence intensity at 1 uM by spectrofluorimetric titration analysis
Quadruplex DNA [5] = experiment: Binding affinity to human Tel23 G4 quadruplex DNA assessed as gibbs free energy change at 298.15 K by isothermal titration calorimetric analysis
Quadruplex DNA [6] = experiment: Binding affinity to human Tel12 G4 quadruplex DNA assessed as quadruplex DNA stabilization by measuring increase in melting temperature at compound:quadruplex DNA ratio of 1:1 by thermal melting studies
Quadruplex DNA [7] = experiment: Binding affinity to human Tel12 G4 quadruplex DNA assessed as change in enthalpy at 298.15 K by isothermal titration calorimetric analysis
Quadruplex DNA [8] = experiment: Binding affinity to human Tel12 G4 quadruplex DNA assessed as sharp isosbestic point at 351 and 433 nm at 3 uM by spectrophotometric titration analysis
Quadruplex DNA [9] = experiment: Binding affinity to human Tel23 G4 quadruplex DNA assessed as sharp isosbestic point at 350, 375 and 430 nm at 3 uM by spectrophotometric titration analysis
Quadruplex DNA [10] = experiment: Binding affinity to human Tel23 G4 quadruplex DNA assessed as increase in fluorescence intensity at 1 uM by spectrofluorimetric titration analysis
Quadruplex DNA [11] = experiment: Binding affinity to human Tel23 G4 quadruplex DNA assessed as decrease in intensity of positive peaks measured after 5 mins by circular dichroism method
Quadruplex DNA [12] = experiment: Binding affinity to human Tel23 G4 quadruplex DNA at 298.15 K by isothermal titration calorimetric analysis
Quadruplex DNA [13] = experiment: Binding affinity to human Tel12 G4 quadruplex DNA assessed as change in entropy at 298.15 K by isothermal titration calorimetric analysis
Quadruplex DNA [14] = experiment: Binding affinity to human Tel23 G4 quadruplex DNA assessed as change in entropy at 298.15 K by isothermal titration calorimetric analysis
Quadruplex DNA [15] = experiment: Binding affinity to human Tel23 G4 quadruplex DNA assessed as change in enthalpy at 298.15 K by isothermal titration calorimetric analysis
Quadruplex DNA [16] = experiment: Binding affinity to human Tel23 G4 quadruplex DNA assessed as decrease in absorption maxima at 338 and 413 nm at 3 uM by spectrophotometric titration analysis
Quadruplex DNA [17] = experiment: Binding affinity to human Tel12 G4 quadruplex DNA assessed as decrease in intensity of positive peaks measured after 5 mins by circular dichroism method
Quadruplex DNA [18] = experiment: Binding affinity to human Tel12 G4 quadruplex DNA at 298.15 K by isothermal titration calorimetric analysis

- Activity (Quadruplex DNA [1]): Active
- deltaTm (Quadruplex DNA [2]): 2 K
- deltaG (Quadruplex DNA [3]): -7.38 kcal/mol
- Activity (Quadruplex DNA [4]): Active
- deltaG (Quadruplex DNA [5]): -6.55 kcal/mol
- deltaTm (Quadruplex DNA [6]): 15 K
- deltaH (Quadruplex DNA [7]): -7.08 kcal/mol
- Activity (Quadruplex DNA [8]): Active
- Activity (Quadruplex DNA [9]): Active
- Activity (Quadruplex DNA [10]): Active
- Activity (Quadruplex DNA [11]): Active
- K (Quadruplex DNA [12]): 8.15 ×10⁴ /M
- TdeltaS (Quadruplex DNA [13]): 0.3 kcal/mol
- TdeltaS (Quadruplex DNA [14]): -1.97 kcal/mol
- deltaH (Quadruplex DNA [15]): -8.53 kcal/mol
- Activity (Quadruplex DNA [16]): Active
- Activity (Quadruplex DNA [17]): Active
- K (Quadruplex DNA [18]): 3.16 ×10⁵ /M
SMILES: COc1ccc2c(CCCc3ccncc3)c3[n+](cc2c1OC)CCc1cc2c(cc1-3)OCO2

— ChEMBL document CHEMBL4613278, “Pyridine Derivative of the Natural Alkaloid Berberine as Human Telomeric G4-DNA Binder: A Solution and Solid-State Study” (ACS Med Chem Lett, 2020)
